Assay results as given in patent US20170190671A1, “BIS(ARYL)CATECHOL DERIVATIVES AS HERBICIDES” (E I DU PONT DE NEMOURS AND COMPANY, priority 2014, published 2017).

Tests used:
Experiment in all cases: Test C postemergence
Format in all cases: in vivo
[1] = tested on: Italian ryegrass (Lolium multiflorum); conditions: Lolium multiflorum, post-emergence, 336 h, Postemergence, scale 0 to 100, read-out: Plant response rating, Ryegrass, Italian
Procedure, shortened: (§1)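 After preemergence treatment of seeds in loam-sand soil or foliar treatment at the 1- to 4-leaf stage of plants in peat/vermiculite medium, pots were kept 13-15 days in the greenhouse. Each was then scored visually, 0 meaning no effect and 100 complete control.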

[2] = tested on: barnyardgrass (Echinochloa crus-galli); conditions: Echinochloa crus-galli, post-emergence, Postemergence, scale 0 to 100, read-out: Plant response rating, Barnyardgrass
Procedure, shortened: as §1

[3] = tested on: blackgrass (Alopecurus myosuroides); conditions: Alopecurus myosuroides, post-emergence, 336 h, Postemergence, scale 0 to 100, read-out: Plant response rating, Blackgrass
Procedure, shortened: as §1

corn (Zea mays) = conditions: Zea mays, post-emergence, 336 h, Postemergence, scale 0 to 100
Procedure, shortened: as §1

[4] = tested on: giant foxtail (Setaria faberii); conditions: Setaria faberi, post-emergence, 336 h, Postemergence, scale 0 to 100, read-out: Plant response rating, Foxtail, Giant
Procedure, shortened: as §1

[5] = tested on: johnsongrass (Sorghum halepense); conditions: Sorghum halepense, post-emergence, 336 h, Postemergence, scale 0 to 100, read-out: Plant response rating, Johnsongrass
Procedure, shortened: as §1

[6] = tested on: lambsquarters (Chenopodium album); conditions: Chenopodium album, post-emergence, 336 h, Postemergence, scale 0 to 100, read-out: Plant response rating, Lambsquarters
Procedure, shortened: as §1

[7] = tested on: large (Lg) crabgrass (Digitaria sanguinalis); conditions: Digitaria sanguinalis, post-emergence, 336 h, Postemergence, scale 0 to 100, read-out: Plant response rating, Crabgrass, Large
Procedure, shortened: as §1

[8] = tested on: morningglory (Ipomoea coccinea); conditions: Ipomoea, post-emergence, 336 h, Postemergence, scale 0 to 100, read-out: Plant response rating, Morningglory
Procedure, shortened: as §1

[9] = tested on: oilseed rape (Brassica napus); conditions: Brassica napus, post-emergence, Postemergence, scale 0 to 100, read-out: Plant response rating, Oilseed Rape
Procedure, shortened: as §1

[10] = tested on: ragweed (common ragweed, Ambrosia elatior); conditions: Ambrosia artemisiifolia, post-emergence, 336 h, Postemergence, scale 0 to 100, read-out: Plant response rating, Ragweed
Procedure, shortened: as §1

soybean (Glycine max) = conditions: Glycine max, post-emergence, Postemergence, scale 0 to 100, read-out: Plant response rating, Soybean
Procedure, shortened: as §1

[11] = tested on: velvetleaf (Abutilon theophrasti); conditions: Abutilon theophrasti, post-emergence, Postemergence, scale 0 to 100, read-out: Plant response rating, Velvetleaf
Procedure, shortened: as §1

[12] = tested on: winter wheat (Triticum aestivum); conditions: Triticum aestivum, post-emergence, 336 h, Postemergence, scale 0 to 100, read-out: Plant response rating, Wheat
Procedure, shortened: as §1

Fc1cnc(Oc2c(F)cccc2Oc2ncc(Cl)cn2)nc1 [Compound 23]
60%: pest or weed control at 31 g/ha ([8]; 31 g ai/ha) | pest or weed control at 31 g/ha ([10]; 31 g ai/ha)
90%: pest or weed control at 125 g/ha ([6]; 125 g ai/ha) | plant injury at 125 g/ha (soybean (Glycine max); 125 g ai/ha) | pest or weed control at 250 g/ha ([11]; 250 g ai/ha)
0%: pest or weed control at 31 g/ha ([1]; 31 g ai/ha) | pest or weed control at 62 g/ha ([1]; 62 g ai/ha) | pest or weed control at 125 g/ha ([1]; 125 g ai/ha) | pest or weed control at 31 g/ha ([3]; 31 g ai/ha) | pest or weed control at 31 g/ha ([4]; 31 g ai/ha) | pest or weed control at 31 g/ha ([5]; 31 g ai/ha) | pest or weed control at 62 g/ha ([5]; 62 g ai/ha) | plant injury at 31 g/ha ([12]; 31 g ai/ha) | plant injury at 62 g/ha ([12]; 62 g ai/ha) | plant injury at 125 g/ha ([12]; 125 g ai/ha)
45%: plant injury at 250 g/ha ([9]; 250 g ai/ha)
10%: pest or weed control at 62 g/ha ([2]; 62 g ai/ha) | pest or weed control at 125 g/ha ([2]; 125 g ai/ha) | Corn plant response rating (crop injury, 0 = no effect, 100 = complete kill) at 125 g/ha (corn (Zea mays); 125 g ai/ha) | Corn plant response rating (crop injury, 0 = no effect, 100 = complete kill) at 250 g/ha (corn (Zea mays); 250 g ai/ha) | pest or weed control at 125 g/ha ([4]; 125 g ai/ha) | pest or weed control at 125 g/ha ([7]; 125 g ai/ha) | plant injury at 31 g/ha ([9]; 31 g ai/ha)
95%: pest or weed control at 250 g/ha ([6]; 250 g ai/ha) | pest or weed control at 250 g/ha ([8]; 250 g ai/ha) | plant injury at 250 g/ha (soybean (Glycine max); 250 g ai/ha)
50%: plant injury at 125 g/ha ([9]; 125 g ai/ha)
80%: pest or weed control at 62 g/ha ([6]; 62 g ai/ha)
30%: pest or weed control at 250 g/ha ([3]; 250 g ai/ha) | pest or weed control at 250 g/ha ([7]; 250 g ai/ha) | plant injury at 62 g/ha ([9]; 62 g ai/ha)
75%: pest or weed control at 62 g/ha ([8]; 62 g ai/ha) | pest or weed control at 125 g/ha ([10]; 125 g ai/ha) | pest or weed control at 125 g/ha ([11]; 125 g ai/ha)
35%: pest or weed control at 250 g/ha ([1]; 250 g ai/ha) | pest or weed control at 250 g/ha ([4]; 250 g ai/ha)
65%: plant injury at 62 g/ha (soybean (Glycine max); 62 g ai/ha)
5%: pest or weed control at 31 g/ha ([2]; 31 g ai/ha) | pest or weed control at 62 g/ha ([3]; 62 g ai/ha) | pest or weed control at 125 g/ha ([3]; 125 g ai/ha) | Corn plant response rating (crop injury, 0 = no effect, 100 = complete kill) at 31 g/ha (corn (Zea mays); 31 g ai/ha) | Corn plant response rating (crop injury, 0 = no effect, 100 = complete kill) at 62 g/ha (corn (Zea mays); 62 g ai/ha) | pest or weed control at 62 g/ha ([4]; 62 g ai/ha) | pest or weed control at 125 g/ha ([5]; 125 g ai/ha) | pest or weed control at 250 g/ha ([5]; 250 g ai/ha) | pest or weed control at 31 g/ha ([7]; 31 g ai/ha) | pest or weed control at 62 g/ha ([7]; 62 g ai/ha) | plant injury at 250 g/ha ([12]; 250 g ai/ha)
85%: pest or weed control at 125 g/ha ([8]; 125 g ai/ha)
25%: pest or weed control at 250 g/ha ([2]; 250 g ai/ha)
100%: pest or weed control at 250 g/ha ([10]; 250 g ai/ha)
70%: pest or weed control at 31 g/ha ([6]; 31 g ai/ha) | pest or weed control at 62 g/ha ([10]; 62 g ai/ha) | plant injury at 31 g/ha (soybean (Glycine max); 31 g ai/ha) | pest or weed control at 31 g/ha ([11]; 31 g ai/ha) | pest or weed control at 62 g/ha ([11]; 62 g ai/ha)
